Test results as given in patent US20110092445A1, “Amyloid ß peptide analogues, oligomers thereof, processes for preparing and composi-tions comprising said analogues or oligomers, and their uses” (Abbott Laboratories, priority 2008, published 2011).
Bridges are numbered along the chain shown (N, C = ends). Where no end group is shown, it is not given here. The star is where a group is joined. Acm = CC(=O)NC*

How the values were obtained:
[1] = system: globulomer-specific antibodies (mAb 5F7, mAb 7C6, rabbit polyclonal antiserum 5599); assay: Direct ELISA, response to globulomer-specific antibodies; format: binding; details: for display of the globulomer epitope: oligomers before thermolysin truncation, 5F7, 7C6, antiserum 5599; for reactivity of cross-linked oligomers to the globulomer-specific antibodies: after intra-molecular cross-linking, FIGS. 14-16, 18; for change in affinity to the globulomer-specific antibodies upon truncation with thermolysin: after thermolysin truncation versus untruncated oligomer
From the text: (§1) Materials: Microtiterplates were Nunc Immuno Plate, Maxi-Sorb Surface, flat bottom, (Catalogue #439454). The conjugate (secondary antibody) was Donkey anti-mouse HRPO conjugate, Jackson Immuno Research, (Catalogue #715-035-150). The HRPO Substrate was 3,3′,5′5′-Tetramethylbenzidine Liquid substrate (TMB), Sigma, (Catalogue #T4444). Non-fat Dry Milk (NFDM), was from BioRad, (Catalogue #170-6404). All other chemicals were from conventional sources.
(§2) Buffers and solutions: PBST buffer: Sigma PBS made with 0.05% Tween 20. PBST with 0.5% BSA was made by dissolving […] BSA in 100 mL PBST. Blocking solution was 3% NFDM in PBST. Conjugate diluent was 1% NFDM in PBST. The coating buffer was 100 mM NaHCO3 pH8.2. The HRPO Stop Solution was 2 M H2SO4.
(§3) Coating the plates: The Aβ globulomer to be tested was diluted to 1.0 μg/mL in coating buffer. 100 μL were added to each well to be coated. Plate was sealed with sealing film and left at 4° C. overnight.
(§4) Plate Blocking: The coating solution was removed from the wells. Each well was optionally washed 2-3× with 150 μL of PBST. 300 μL of blocking solution were added (3% NFDM in PBST). Plate was covered with plate sealing film and incubated for ˜2 hrs at room temperature, with agitation.
(§5) Primary Antibody: The blocking solution was removed from the wells. Each well was optionally washed 2-3× with 150 μL of PBST. 100 μL of primary antibody solutions were added. For the full length N-Met Aβ(1-42) globulomer, solutions of 0.04 to 100 μg/mL of antibody 5F7 were used. The antibody was diluted using PBST with 0.5% BSA. The plate was covered with plate sealing film and incubated for ˜2 to 3 hrs at room temperature with agitation.
Secondary Antibody (HRPO Conjugate): The primary antibody solution was removed from the wells. Each well was washed 2-3× with 150 μL of PBST. 200 μL of secondary antibody (HRPO conjugate) solution diluted 1:5000 in PBST with 1% NFDM were added. The plate was covered with plate sealing film and incubated for ˜1 hr at room temperature with agitation.
Substrate Development: The conjugate solution was removed from the wells. Each well was washed 2-3× with 200 μL of PBST. 100 μL of HRPO substrate solution were added to each well. Color was allowed to develop under observation. It turned blue. The reaction was usually done in 5-10 minutes at room temperature. 50 μL of stop solution were added to each well. The blue color turned yellow. Absorbance at 450 nm was read using a microtiterplate reader within 30 min of addition of the stop solution.

[2] = for homogeneity of oligomers in sedimentation velocity experiments / hydrodynamic properties relative to wild-type N-Met Aβ(1-42) (truncated) globulomer: FIG. 5A-5C; for hydrodynamic homogeneity after truncation at residue 20 by thermolysin: presence (FIG. 5B) and absence (FIG. 5C) of 0.05% SDS
Description: Samples were loaded into standard two-sector cells using sapphire windows. All samples were examined using either a 4-hole or an 8-hole rotor.
Conditions were as follows: temperature: 20° C., rotor speed: 42,000 rpm, interference data was collected, absorbance data was collected at 280 nm in continuous mode with a radial step size of 0.003 cm. One data point was collected per step (no signal averaging). Typically, 200 scans or less were collected over the course of no more than 9 hrs.
A continuous S distribution analysis (C(s) analysis) was done as implemented in Sedfit v8.9 (P. Schuck (2000), “Size distribution analysis of macromolecules by sedimentation velocity ultracentrifugation and Lamm equation modeling”, Biophysical Journal 78:1606-1619) to understand the overall heterogeneity of the samples. Both radial and time independent noise were fit and removed from the data using a maximal entropy algorithm.

[3] = system: globulomer-specific monoclonal antibody 5F7; assay: Direct ELISA, binding of globulomer-specific mAb 5F7 to coated oligomer; parameters: species or system murine; details: FIG. 3A; for binding of the globulomer-specific monoclonal antibody 5F7 (direct ELISA response): N-Met Aβ(1-42) globulomer compared with mutant oligomer
From the text: as §1, §2, §3, §4, §5
Secondary Antibody (HRPO Conjugate): The primary antibody solution was removed from the wells. Each well was washed 2-3× with 150 μL of PBST. 200 μL of secondary antibody (HRPO conjugate) solution diluted 1:5000 in PBST with 1% NFDM were added. […]
Substrate Development: The conjugate solution was removed from the wells. […] Absorbance at 450 nm was read using a microtiterplate reader within 30 min of addition of the stop solution.

Row | Substance | display of the globulomer epitope [1] | change in affinity to the globulomer-specific antibodies upon truncation with thermolysin [1] | further results
1 | (17C(ACM), 34C(ACM)) Aβ(16-35) oligomer (KC(Acm)VFFAEDVGSNKGAIIGC(Acm)M; also: oligomer; UniProt P05067 687-706, looked up, variant L17C L34C) [3l] | not able to form oligomers that displayed the globulomer epitope | – | –
2 | (17K, 34C) N-Met Aβ(1-42) oligomer [example 3w] | display the globulomer epitope | – | –
3 | (17K, 34E) N-Met Aβ(1-42) oligomer [example 3x] | display the globulomer epitope | – | –
4 | Aβ(16-35)-amide oligomer (KLVFFAEDVGSNKGAIIGLM-NH2; also: oligomer; UniProt P05067 687-706, looked up, fragment) [example 3m] | not able to form oligomers that displayed the globulomer epitope | – | –
5 | Dissulfide stabilized (17C, 34C) N-Met Aβ(1-42) oligomer [example 2a] | – | – | homogeneity of oligomers in sedimentation velocity experiments [2]: formed homogeneous oligomers; hydrodynamic properties relative to wild-type N-Met Aβ(1-42) (truncated) globulomer [2]: displayed better hydrodynamic properties; binding of the globulomer-specific monoclonal antibody 5F7 (direct ELISA response) [3]: almost identical; display of the globulomer-specific epitope ([3]; mAb 5F7): still displays the globulomer-specific epitope
6 | Disulfide-stabilized (17C, 34C) Aβ(12-42) oligomer (VHHQKCVFFAEDVGSNKGAIIGCMVGGVVIA; disulfide 6-23; also: oligomer; UniProt P05067 683-713, looked up, variant L17C L34C) [example 4k] | displayed the globulomer epitope | – | –
7 | Disulfide-stabilized (17C, 34C) Aβ(16-42) oligomer (KCVFFAEDVGSNKGAIIGCMVGGVVIA-OH; disulfide 2-19; also: oligomer; UniProt P05067 687-713, looked up, variant L17C L34C) [example 4s] | displayed the globulomer epitope | – | –
8 | EDC/NHS-linked (17K, 34E) N-Met Aβ(1-42) oligomer [example 4x] | – | expected increase in affinity | reactivity of cross-linked oligomers to the globulomer-specific antibodies [1]: still display the appropriate reactivity
9 | MBS-linked (17K, 34C) N-Met Aβ(1-42) oligomer [example 4w2] | – | expected increase in affinity | reactivity of cross-linked oligomers to the globulomer-specific antibodies [1]: still display the appropriate reactivity
10 | N-Met Aβ(1-42) globulomer [reference compound] | – | – | homogeneity of oligomers in sedimentation velocity experiments [2]: formed homogeneous oligomers; hydrodynamic homogeneity after truncation at residue 20 by thermolysin [2]: too heterogeneous to be examined; binding of the globulomer-specific monoclonal antibody 5F7 (direct ELISA response) [3]: almost identical
11 | SIAB-linked (17K, 34C) N-Met Aβ(1-42) oligomer [example 4w3] | – | expected increase in affinity | reactivity of cross-linked oligomers to the globulomer-specific antibodies [1]: still display the appropriate reactivity
12 | SMCC-linked (17K, 34C) N-Met Aβ(1-42) oligomer [example 4w1] | – | expected increase in affinity | reactivity of cross-linked oligomers to the globulomer-specific antibodies [1]: still display the appropriate reactivity
13 | Thermolysin truncation of [(17C, 34C) Aβ(16-35)-amide, cyclic] oligomer [example 5o] | – | expected increase in affinity | –
14 | Thermolysin truncation of disulfide stabilized (17C, 34C) Aβ(12-42) oligomer [example 5k] | – | expected increase in affinity | –
15 | Thermolysin truncation of disulfide stabilized (17C, 34C) Aβ(16-42) oligomer [example 5s] | – | expected increase in affinity | –
16 | Thermolysin truncation of disulfide stabilized (17C, 34C) N-Met Aβ(1-42) oligomer [example 5y] | – | – | homogeneity of oligomers in sedimentation velocity experiments [2]: formed homogeneous oligomers; hydrodynamic properties relative to wild-type N-Met Aβ(1-42) (truncated) globulomer [2]: displayed better hydrodynamic properties; hydrodynamic homogeneity after truncation at residue 20 by thermolysin [2]: remains significantly more hydrodynamically homogeneous
17 | [(17C, 34C) Aβ(16-35)-amide, cyclic] oligomer (KCVFFAEDVGSNKGAIIGCM-NH2; disulfide 2-19; also: oligomer; UniProt P05067 687-706, looked up, variant L17C L34C) [example 4o] | displayed the globulomer epitope | – | –
